According to ChEMBL document CHEMBL6134930, “Discovery of AB801, a Potent and Selective Inhibitor of AXL Receptor Tyrosine Kinase for Use in Cancer Therapy” (J Med Chem, 2025):
Active and inactive are the calls of the source. The rule behind the calls is not given here.

What was measured:
CYP2C8 = biological target: T1, CYP2C8 (Homo sapiens, UniProt P10632); assay: Time dependent inhibition of CYP2C8 (unknown origin) at 30 uM measured after 30 mins relative to control; format: ADME; conditions: read-out: TDI
T1 sequence (P10632 whole entry): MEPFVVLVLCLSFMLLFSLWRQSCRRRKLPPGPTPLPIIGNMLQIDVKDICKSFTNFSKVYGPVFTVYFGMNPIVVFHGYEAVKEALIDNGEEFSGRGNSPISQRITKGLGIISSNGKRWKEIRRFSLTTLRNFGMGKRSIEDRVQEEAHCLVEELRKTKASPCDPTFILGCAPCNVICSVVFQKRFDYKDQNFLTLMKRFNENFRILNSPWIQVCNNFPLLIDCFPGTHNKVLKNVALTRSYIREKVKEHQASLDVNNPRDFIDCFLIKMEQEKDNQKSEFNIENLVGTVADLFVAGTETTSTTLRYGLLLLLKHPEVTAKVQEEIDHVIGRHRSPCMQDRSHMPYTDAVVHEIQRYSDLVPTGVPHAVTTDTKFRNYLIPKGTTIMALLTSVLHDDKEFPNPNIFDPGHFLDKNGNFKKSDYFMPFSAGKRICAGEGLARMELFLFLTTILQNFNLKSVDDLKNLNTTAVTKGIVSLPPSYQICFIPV

[1] = Clearance in CD-1 mouse at 0.5 mg/kg, iv measured up to 24 hrs by LC-MS/MS analysis; format: ADME, organism-based; conditions: in vivo
CYP3A4 = CYP3A4 (Homo sapiens, UniProt P08684); assay: Time dependent inhibition of CYP3A4 (unknown origin) using testosterone as substrate at 30 uM measured after 30 mins relative to control; format: ADME; conditions: probe testosterone, read-out: TDI
[2] = Selectivity ratio, ratio of Ki for TYRO3 (unknown origin) to Ki for AXL (unknown origin)
[3] = Cmax in human (healthy individuals) at 10 mg, single oral dose measured uo to 120 hrs; format: ADME; conditions: in vivo
[4] = Toxicity in mouse xenografted with human 786-0 cells assessed as body weight in presence of sunitinib at 30 mg/kg, po once daily for 15 days; format: organism-based; conditions: in vivo, 360 h, time 15 day
786-0 [5] = assay: Anti-tumor activity against human 786-0 cells xenografted in mouse model assessed as increase in soluble AXL level in plasma at 30 mg/kg, po once daily for 15 days; format: functional, organism-based; conditions: time 15.0 day
hERG (KCNH2) = hERG (KCNH2) (Homo sapiens, UniProt Q12809); assay: Inhibition of hERG at 10 uM by high throughput cell based patch clamp assay; format: toxicity
[6] = Half life in human (healthy individuals) at 10 mg, single oral dose; format: ADME; conditions: in vivo
786-0 [7] = assay: Anti-tumor activity against human 786-0 cells xenografted in mouse model assessed as tumor growth inhibition at 10 mg/kg, po once daily for 15 days; format: functional, organism-based; conditions: time 15.0 day
Cytochrome P450 3A4 = Cytochrome P450 3A4 (Homo sapiens, UniProt P08684); assay: Inhibition of CYP3A4 (unknown origin) using testosterone as substrate measured after 30 mins; format: ADME
[8] = Selectivity ratio, ratio of Ki for MERTK (unknown origin) to Ki for AXL (unknown origin)
[9] = Selectivity ratio, ratio of Ki for TRKA (unknown origin) to Ki for AXL (unknown origin)
Cytochrome P450 2C9 = Cytochrome P450 2C9 (Homo sapiens, UniProt P11712); assay: Inhibition of CYP2C9 (unknown origin) measured after 30 mins; format: ADME
[10] = Metabolic stability in human hepatocytes assessed as intrinsic clearance measured per 10^6 cells; format: ADME, cell-based, Hepatocyte; conditions: read-out: CLH
[11] = Clearance in cynomolgus monkey at 0.5 mg/kg, iv measured up to 24 hrs by LC-MS/MS analysis; format: ADME, organism-based, Macaca fascicularis; conditions: in vivo
[12] = Efflux ratio in human Caco-2 cells; format: ADME, cell-based
[13] = Toxicity in mouse xenografted with human 786-0 cells assessed as body weight in presence of sunitinib at 10 mg/kg, po once daily for 15 days; format: organism-based; conditions: in vivo, 360 h, time 15 day
786-0 [14] = assay: Anti-tumor activity against human 786-0 cells xenografted in mouse model assessed as tumor growth inhibition in presence of sunitinib at 30 mg/kg, po once daily for 15 days; format: functional, organism-based; conditions: time 15.0 day
[15] = Tmax in human (healthy individuals) at 30 mg, single oral dose; format: ADME; conditions: in vivo
786-0 [16] = assay: Anti-tumor activity against human 786-0 cells xenografted in mouse model assessed as tumor growth inhibition in presence of sunitinib at 10 mg/kg, po once daily for 15 days; format: functional, organism-based; conditions: time 15.0 day
786-0 [17] = assay: Anti-tumor activity against human 786-0 cells xenografted in mouse model assessed as reduction in tumor volume in presence of sunitinib at 30 mg/kg, po once daily for 15 days; format: functional, organism-based; conditions: time 15.0 day
[18] = biological target: T2, Tyrosine-protein kinase receptor UFO (Homo sapiens, UniProt P30530); assay: Inhibition of autophosphorylation AXL (unknown origin) expressed in HEK293 cells assessed as NanoLuc activity associated with phosphorylated proteins measured after 1 hr incubation by intracellular pAXL-ELISA; format: cell-based
T2 sequence (P30530 whole entry): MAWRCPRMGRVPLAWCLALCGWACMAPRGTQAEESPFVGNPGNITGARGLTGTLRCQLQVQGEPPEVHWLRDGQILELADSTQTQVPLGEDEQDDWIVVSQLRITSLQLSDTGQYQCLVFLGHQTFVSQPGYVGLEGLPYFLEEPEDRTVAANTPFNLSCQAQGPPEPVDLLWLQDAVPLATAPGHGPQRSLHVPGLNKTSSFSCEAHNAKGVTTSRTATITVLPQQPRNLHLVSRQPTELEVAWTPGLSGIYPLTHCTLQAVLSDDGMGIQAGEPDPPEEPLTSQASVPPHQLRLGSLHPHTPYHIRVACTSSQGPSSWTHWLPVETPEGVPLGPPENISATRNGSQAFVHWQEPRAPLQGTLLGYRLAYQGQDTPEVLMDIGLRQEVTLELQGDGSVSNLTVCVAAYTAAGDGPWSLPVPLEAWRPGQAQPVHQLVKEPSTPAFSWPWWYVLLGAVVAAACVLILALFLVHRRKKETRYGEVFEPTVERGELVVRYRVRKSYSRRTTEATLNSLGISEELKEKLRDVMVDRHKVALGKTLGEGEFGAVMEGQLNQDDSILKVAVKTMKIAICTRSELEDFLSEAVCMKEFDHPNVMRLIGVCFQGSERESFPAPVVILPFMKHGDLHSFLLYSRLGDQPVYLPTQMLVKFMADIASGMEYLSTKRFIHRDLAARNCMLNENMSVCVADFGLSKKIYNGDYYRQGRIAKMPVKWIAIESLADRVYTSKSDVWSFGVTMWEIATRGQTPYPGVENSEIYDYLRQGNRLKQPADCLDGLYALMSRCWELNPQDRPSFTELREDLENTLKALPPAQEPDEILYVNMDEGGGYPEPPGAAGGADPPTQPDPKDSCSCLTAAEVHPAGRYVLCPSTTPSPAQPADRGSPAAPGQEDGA

CYP2D6 = CYP2D6 (Homo sapiens, UniProt P10635); assay: Time dependent inhibition of CYP2D6 (unknown origin) at 30 uM measured after 30 mins relative to control; format: ADME; conditions: read-out: TDI
[19] = Half life in human (healthy individuals) at 270 mg, single oral dose; format: ADME; conditions: in vivo
786-0 [20] = assay: Anti-tumor activity against human 786-0 cells xenografted in mouse model assessed as tumor growth inhibition at 30 mg/kg, po once daily for 15 days; format: functional, organism-based; conditions: time 15.0 day

Sequence of CYP2D6 (P10635 whole entry): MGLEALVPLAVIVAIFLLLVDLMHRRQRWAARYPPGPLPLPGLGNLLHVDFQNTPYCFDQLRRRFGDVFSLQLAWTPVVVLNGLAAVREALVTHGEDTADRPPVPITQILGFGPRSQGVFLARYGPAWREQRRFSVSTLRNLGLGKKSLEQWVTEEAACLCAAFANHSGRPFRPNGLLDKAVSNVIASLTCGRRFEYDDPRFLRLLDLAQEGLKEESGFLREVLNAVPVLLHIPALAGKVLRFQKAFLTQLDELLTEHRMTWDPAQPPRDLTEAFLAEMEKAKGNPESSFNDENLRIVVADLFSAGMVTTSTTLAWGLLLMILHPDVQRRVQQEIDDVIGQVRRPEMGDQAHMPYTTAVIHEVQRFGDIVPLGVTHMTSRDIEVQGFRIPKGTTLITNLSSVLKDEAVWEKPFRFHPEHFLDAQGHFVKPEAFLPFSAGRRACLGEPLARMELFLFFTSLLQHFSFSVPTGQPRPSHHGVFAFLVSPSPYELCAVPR
Sequence of CYP3A4 (P08684 whole entry): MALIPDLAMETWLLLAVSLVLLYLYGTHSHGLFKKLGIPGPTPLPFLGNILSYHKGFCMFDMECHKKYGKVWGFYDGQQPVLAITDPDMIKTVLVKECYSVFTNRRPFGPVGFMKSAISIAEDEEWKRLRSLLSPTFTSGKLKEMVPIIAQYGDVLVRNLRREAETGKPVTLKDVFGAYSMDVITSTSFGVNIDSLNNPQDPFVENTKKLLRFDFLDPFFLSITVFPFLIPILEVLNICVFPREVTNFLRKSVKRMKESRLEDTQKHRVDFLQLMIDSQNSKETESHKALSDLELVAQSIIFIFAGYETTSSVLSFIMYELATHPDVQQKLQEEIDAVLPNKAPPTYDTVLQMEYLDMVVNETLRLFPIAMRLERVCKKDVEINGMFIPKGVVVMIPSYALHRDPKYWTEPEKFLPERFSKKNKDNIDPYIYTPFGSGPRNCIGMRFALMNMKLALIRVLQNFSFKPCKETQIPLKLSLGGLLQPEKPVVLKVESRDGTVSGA
Sequence of Cytochrome P450 3A4 (P08684 whole entry): as above
Sequence of hERG (KCNH2) (Q12809 whole entry): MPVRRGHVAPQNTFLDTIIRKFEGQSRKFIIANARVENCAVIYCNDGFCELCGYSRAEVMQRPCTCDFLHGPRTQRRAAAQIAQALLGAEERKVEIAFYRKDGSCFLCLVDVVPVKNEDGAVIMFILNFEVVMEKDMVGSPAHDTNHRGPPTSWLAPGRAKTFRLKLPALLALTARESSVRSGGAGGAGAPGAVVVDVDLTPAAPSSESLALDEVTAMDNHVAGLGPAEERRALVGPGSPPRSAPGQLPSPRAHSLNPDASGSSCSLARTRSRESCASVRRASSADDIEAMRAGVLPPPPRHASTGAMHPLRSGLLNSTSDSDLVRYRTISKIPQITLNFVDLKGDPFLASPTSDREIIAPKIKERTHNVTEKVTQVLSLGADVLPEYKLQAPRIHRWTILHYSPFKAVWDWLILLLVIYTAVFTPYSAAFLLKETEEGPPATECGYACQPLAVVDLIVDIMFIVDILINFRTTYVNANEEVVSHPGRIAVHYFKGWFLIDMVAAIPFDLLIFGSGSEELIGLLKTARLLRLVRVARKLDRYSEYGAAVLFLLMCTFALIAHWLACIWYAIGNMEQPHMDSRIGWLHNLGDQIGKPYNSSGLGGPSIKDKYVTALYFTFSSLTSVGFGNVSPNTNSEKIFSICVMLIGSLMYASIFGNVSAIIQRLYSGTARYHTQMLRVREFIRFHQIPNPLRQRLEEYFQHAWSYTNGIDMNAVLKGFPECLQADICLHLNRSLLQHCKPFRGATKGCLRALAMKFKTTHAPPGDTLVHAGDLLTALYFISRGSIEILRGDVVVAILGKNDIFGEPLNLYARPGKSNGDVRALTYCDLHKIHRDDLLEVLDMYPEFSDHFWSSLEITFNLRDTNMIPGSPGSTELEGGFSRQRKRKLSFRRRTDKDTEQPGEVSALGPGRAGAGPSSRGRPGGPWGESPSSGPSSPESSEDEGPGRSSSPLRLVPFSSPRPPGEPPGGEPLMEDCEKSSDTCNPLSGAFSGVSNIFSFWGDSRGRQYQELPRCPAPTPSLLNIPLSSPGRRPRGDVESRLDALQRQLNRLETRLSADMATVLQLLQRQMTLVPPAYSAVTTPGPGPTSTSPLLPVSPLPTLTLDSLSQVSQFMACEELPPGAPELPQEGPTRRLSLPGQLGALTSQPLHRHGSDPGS
Sequence of Cytochrome P450 2C9 (P11712 whole entry): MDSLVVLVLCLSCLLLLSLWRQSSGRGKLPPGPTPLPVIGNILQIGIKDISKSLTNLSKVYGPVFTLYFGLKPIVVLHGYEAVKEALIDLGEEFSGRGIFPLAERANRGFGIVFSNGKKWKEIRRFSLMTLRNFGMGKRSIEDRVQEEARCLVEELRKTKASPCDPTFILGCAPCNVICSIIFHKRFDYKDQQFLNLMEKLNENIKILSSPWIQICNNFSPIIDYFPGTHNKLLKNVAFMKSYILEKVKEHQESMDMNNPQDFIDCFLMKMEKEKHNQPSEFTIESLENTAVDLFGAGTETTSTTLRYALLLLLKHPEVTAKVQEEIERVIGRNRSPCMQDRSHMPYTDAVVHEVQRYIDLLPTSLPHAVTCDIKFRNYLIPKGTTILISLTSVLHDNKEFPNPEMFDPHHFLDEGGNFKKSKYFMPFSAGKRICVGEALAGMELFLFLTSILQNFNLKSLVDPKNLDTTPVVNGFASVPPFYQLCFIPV

`Cc1cccnc1-c1ccc(-c2n[nH]c3ncc(-c4ccc5c(c4)CC[C@@H](N4C6COCC4C6)CC5)cc23)nc1` showed an inhibition at 0.5 h, 30 µM (CYP2C8) of 0%, a clearance [1] of 8.83 mL/min/kg and an inhibition at 0.5 h, 30 µM (CYP3A4) of 16%. The Ratio Ki [2] was 1400, the Cmax [3] was 3 ng/mL and the Activity [4] was “Non-toxic”. For the same molecule, the Activity (786-0 [5]) was “Active”, the inhibition at 10 µM (hERG (KCNH2)) was 56% and the half-life [6] was 70 h. For the same molecule, the Activity (786-0 [7]) was “inactive”, the IC50 (Cytochrome P450 3A4) was 5.6 µM and the Ratio Ki [8] was 880. It also gave a Ratio Ki [9] of 330, an IC50 (Cytochrome P450 2C9) of 91 µM and a hepatocyte CLint [10] of 1.8 µL/min/1e6 cells. The clearance [11] was 12.7 mL/min/kg, the efflux ratio [12] was 1.9 and the Activity [13] was “Non-toxic”. The Activity (786-0 [14]) was “Active”, the Tmax [15] was 8 h and the Activity (786-0 [16]) was “Active”. The Activity (786-0 [17]) was “Active”, the IC50 [18] was 0.069 µM and the inhibition at 0.5 h, 30 µM (CYP2D6) was 0%. For the same molecule, the half-life [19] was 40 h and the Activity (786-0 [20]) was “inactive”.
